# Experimental data: publication PMC9181698 (International Journal of Molecular Sciences, 2022)
# “Also recorded” adds a separate entry of the source. Residues, ends and D or L forms follow the SMILES beside them.
# How the values were obtained:
# [1] = biological target: T1, ACE2–RBD interaction (wt SARS-CoV-2 spike protein RBD-Fc / His-tagged hACE2) (Severe acute respiratory syndrome coronavirus 2, UniProt P0DTC2); assay: SARS-CoV-2 spike protein RBD–hACE2 inhibition assay (ELISA), wt RBD; assay type: biochemical; conditions: individual helices of LCB1
# T1 construct: SARS-CoV-2 spike protein RBD-Fc fusion protein; Fc fusion; purchased Sino Biological
# neutrophil elastase [2] = biological target: T2, neutrophil elastase (Homo sapiens, UniProt P08246); assay type: in vitro ADME; conditions: neutrophil elastase 5.5 µg/mL in Tris buffer 0.1 M + NaCl 0.5 M pH 7.8, enzyme pre-incubated 15 min at 37 °C, peptide 100 µM, 60 min, LC-MS (Figure 4C,D)
# T2 construct: purchased Abcam
# T2 sequence (P08246 30-267): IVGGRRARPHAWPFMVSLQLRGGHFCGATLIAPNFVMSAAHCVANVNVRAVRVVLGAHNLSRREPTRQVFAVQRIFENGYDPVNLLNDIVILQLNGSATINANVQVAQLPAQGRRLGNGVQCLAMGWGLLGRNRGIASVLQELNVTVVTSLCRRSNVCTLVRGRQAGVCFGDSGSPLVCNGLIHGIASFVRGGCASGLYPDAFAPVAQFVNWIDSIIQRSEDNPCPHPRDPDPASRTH
# Description: (§1) The enzymes (pepsin, Ph.Eur. grade, Carl Roth GmbH, and neutrophil elastase, 20–22 U/mg, Abcam, respectively) were diluted to 5.5 µg/mL in TFA 10 mM (pepsin) or Tris buffer 0.1 M + NaCl 0.5 M pH 7.8 (neutrophil elastase) and pre-incubated for 15 min at 37 °C. Peptides were added at 100 µM and incubated at 37 °C. A sample of 40 µL was taken after 60 min of incubation and the reaction was stopped by adding 5 µL sodium carbonate solution (1 M, pepsin) and 5 µL TFA (neutrophil elastase), respectively. After 10 min, 60 µL acetonitrile/water 50:50 containing 1% TFA were added, and the resulting solution was analyzed by LC-MS (conditions: Phenomenex Kinetex 2.6 μm C18 100 Å column, 50 × 2.1 mm, flow rate 0.55 mL/min, gradient of acetonitrile in H2O (both containing 0.1% TFA, 20–60% over 20 min)).
# pepsin [3] = biological target: T3, pepsin (Sus scrofa, UniProt P00791); assay type: in vitro ADME; conditions: pepsin 5.5 µg/mL in TFA 10 mM, enzyme pre-incubated 15 min at 37 °C, peptide 100 µM, 60 min, LC-MS (Figure 4A,B)
# T3 construct: purchased Carl Roth GmbH
# Description: as §1
# pepsin [4] = assay: pepsin, Ph.Eur. grade, Carl Roth GmbH, diluted to 5.5 µg/mL in TFA 10 mM; conditions: 37 °C, up to 60 min
# neutrophil elastase [5] = assay: neutrophil elastase, 20–22 U/mg, Abcam, diluted to 5.5 µg/mL in Tris buffer 0.1 M + NaCl 0.5 M pH 7.8; conditions: 37 °C, up to 60 min
# T3 sequence (P00791 60-385): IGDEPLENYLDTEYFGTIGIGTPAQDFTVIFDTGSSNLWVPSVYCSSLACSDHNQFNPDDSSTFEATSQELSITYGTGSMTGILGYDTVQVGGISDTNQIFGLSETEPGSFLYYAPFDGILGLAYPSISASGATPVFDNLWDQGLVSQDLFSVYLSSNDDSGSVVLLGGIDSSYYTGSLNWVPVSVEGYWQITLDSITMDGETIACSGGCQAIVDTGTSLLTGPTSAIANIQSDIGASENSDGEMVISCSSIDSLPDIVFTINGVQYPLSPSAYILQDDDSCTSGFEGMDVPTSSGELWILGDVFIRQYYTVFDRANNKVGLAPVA
Molecule,Inhibitory activity on the ACE2–RBD interaction (in words) [1],Stability towards neutrophil elastase (in words) (neutrophil elastase [2]),Susceptibility to proteolytic degradation by pepsin (in words) (pepsin [3]),other results
CC[C@H](C)[C@H](NC(=O)[C@H](Cc1c[nH]c2ccccc12)NC(=O)[C@H](CCC(=O)O)NC(=O)[C@H](CCCCN)NC(=O)[C@H](CC(=O)O)NC(=O)COCCOCCNC(=O)CCCC[C@@H]1SC[C@@H]2NC(=O)N[C@@H]21)C(=O)N[C@@H](CC(C)C)C(=O)N[C@@H](CCC(N)=O)C(=O)N[C@@H](CCCCN)C(=O)N[C@H](C(=O)N[C@@H](Cc1ccc(O)cc1)C(=O)N[C@@H](CCC(=O)O)C(=O)N[C@H](C(=O)N[C@@H](CCSC)C(=O)N[C@@H](CCCNC(=N)N)C(=O)N[C@@H](CC(C)C)C(=O)N[C@@H](CC(C)C)C(=O)N[C@@H](CC(=O)O)C(=O)N[C@@H](CCC(=O)O)C(=O)N[C@@H](CC(C)C)C(N)=O)[C@@H](C)CC)[C@@H](C)CC [LW25.5] (HELM PEPTIDE1{[O=C1N[C@H]2[C@H](CS[C@H]2CCCCC(=O)[*:2])N1].[O=C(COCCOCCN[*:1])[*:2]].D.K.E.W.I.L.Q.K.I.Y.E.I.M.R.L.L.D.E.L.[am]}$$$$V2.0),completely inactive,–,–,–
CC[C@H](C)[C@H](NC(=O)[C@H](CC(C)C)NC(=O)[C@H](CC(=O)O)NC(=O)[C@H](CO)NC(=O)[C@@H](NC(=O)[C@H](CCCNC(=N)N)NC(=O)[C@H](CCSC)NC(=O)[C@H](CO)NC(=O)[C@H](C)NC(=O)[C@H](CCC(=O)O)NC(=O)[C@H](C)NC(=O)[C@H](Cc1c[nH]cn1)NC(=O)CNC(=O)COCCOCCNC(=O)CCCC[C@@H]1SC[C@@H]2NC(=O)N[C@@H]21)C(C)C)C(=O)N[C@@H](Cc1ccc(O)cc1)C(=O)N[C@@H](CCC(=O)O)C(=O)N[C@@H](Cc1ccccc1)C(=O)N[C@@H](CCSC)C(=O)N[C@@H](CCCCN)C(=O)N[C@@H](CCCCN)C(=O)NCC(N)=O [LW25.6] (HELM PEPTIDE1{[O=C1N[C@H]2[C@H](CS[C@H]2CCCCC(=O)[*:2])N1].[O=C(COCCOCCN[*:1])[*:2]].G.H.A.E.A.S.M.R.V.S.D.L.I.Y.E.F.M.K.K.G.[am]}$$$$V2.0),completely inactive,–,–,–
CC[C@H](C)[C@@H]1NC(=O)[C@H](CC(C)C)NC(=O)[C@H](CC(=O)O)NC(=O)[C@H](CO)NC(=O)[C@H](C(C)C)NC(=O)[C@H](CCCNC(=N)N)NC(=O)[C@H](CCSC)NC(=O)[C@H](CO)NC(=O)[C@H](C)NC(=O)[C@H](CCC(=O)O)NC(=O)[C@H](C)NC(=O)[C@H](Cc2c[nH]cn2)NC(=O)CNC(=O)[C@H](CC(C)C)NC(=O)[C@H](CCC(=O)O)NC(=O)[C@H](CC(=O)O)NC(=O)[C@H](CC(C)C)NC(=O)[C@H](CC(C)C)NC(=O)[C@H](CCCNC(=N)N)NC(=O)[C@H](CCSC)NC(=O)[C@H]([C@@H](C)CC)NC(=O)[C@H](CCC(=O)O)NC(=O)[C@H](Cc2ccc(O)cc2)NC(=O)[C@H]([C@@H](C)CC)NC(=O)[C@H](CCCCN)NC(=O)[C@H](CCC(N)=O)NC(=O)[C@H](CC(C)C)NC(=O)[C@H]([C@@H](C)CC)NC(=O)[C@H](Cc2c[nH]c3ccccc23)NC(=O)[C@H](CCC(=O)O)NC(=O)[C@@H](NC(=O)COCCOCCNC(=O)CCCC[C@@H]2SC[C@@H]3NC(=O)N[C@@H]32)CSSC[C@@H](C(N)=O)NC(=O)[C@H](CCCCN)NC(=O)[C@H](CCCCN)NC(=O)[C@H](CCSC)NC(=O)[C@H](Cc2ccccc2)NC(=O)[C@H](CCC(=O)O)NC(=O)[C@H](Cc2ccc(O)cc2)NC1=O [LW25.13],–,still largely intact,largely stable,–
CC[C@H](C)[C@H](NC(=O)[C@H](CC(C)C)NC(=O)[C@H](CC(=O)O)NC(=O)[C@H](CO)NC(=O)[C@@H](NC(=O)[C@H](CCCNC(=N)N)NC(=O)[C@H](CCSC)NC(=O)[C@H](CO)NC(=O)[C@H](C)NC(=O)[C@H](CCC(=O)O)NC(=O)[C@H](C)NC(=O)[C@H](Cc1c[nH]cn1)NC(=O)CNC(=O)[C@H](CC(C)C)NC(=O)[C@H](CCC(=O)O)NC(=O)[C@H](CC(=O)O)NC(=O)[C@H](CC(C)C)NC(=O)[C@H](CC(C)C)NC(=O)[C@H](CCCNC(=N)N)NC(=O)[C@H](CCSC)NC(=O)[C@@H](NC(=O)[C@H](CCC(=O)O)NC(=O)[C@H](Cc1ccc(O)cc1)NC(=O)[C@@H](NC(=O)[C@H](CCCCN)NC(=O)[C@H](CCC(N)=O)NC(=O)[C@H](CC(C)C)NC(=O)[C@@H](NC(=O)[C@H](Cc1c[nH]c2ccccc12)NC(=O)[C@H](CCC(=O)O)NC(=O)[C@H](CCCCN)NC(=O)[C@H](CC(=O)O)NC(=O)COCCOCCNC(=O)CCCC[C@@H]1SC[C@@H]2NC(=O)N[C@@H]21)[C@@H](C)CC)[C@@H](C)CC)[C@@H](C)CC)C(C)C)C(=O)N[C@@H](Cc1ccc(O)cc1)C(=O)N[C@@H](CCC(=O)O)C(=O)N[C@@H](Cc1ccccc1)C(N)=O [LW32.4],–,rapidly hydrolyzed,hydrolyzed only at position L31,–
Biotin-Aoa-DKEWILQKIYEIMRLLDELGHAEASMRVSDLIYEF-NH2,–,–,–,"cleaved bond (pepsin [4]): L31-I32, 60 min; cleaved bond (neutrophil elastase [5]): A-S, 60 min; also recorded: S-M, 60 min"
Biotin-Aoa-[^3 CEWILQKIYEIMRLLDELGHAEASMRVSDLIYEFMKKC]-NH2,–,–,–,not cleaved (pepsin [4]): largely stable towards pepsin for at least 60 min; not cleaved (neutrophil elastase [5]): still largely intact after 60 min exposure to the enzyme
